# From US8487090B2, “Water solution of 20(R)-ginsenoside Rg3 pharmaceutical composition and process thereof” (Dalian Fusheng Natural Medicine Development Co., Ltd., priority 2006, dated 2013)
# Read-outs that look alike come from different tables or passages of the source. Marks after values point to notes of the source that are not given here.
# Key:
# [1] = cited from earlier work
# [2] = tested on: Human Gastric Cancer MGC Model; assay: Stomach in situ inoculation model, survival; assay type: in vivo, nude mice; settings: 30 mg/kg/d ip × 7 qd
# Protocol: (§1) Take intravenous administration, twice per day. For mice models inoculated with human tumor models and cells, continue injection for seven days; for mice models inoculated with mouse tumor cells, continue injection for five days.
# (§2) Positive controls: CTX, 30 mg/kg; MMC, 2 mg/kg; 5Fu, 30 mg/kg; intraperitoneal or intravenous injection, once daily, continues for 7 days.
# Take strongly growing in-vivo 2nd-generation MGC stomach cancer (cells) under sterile condition, and prepare it into a cell suspension with a density of 2×10^7 cells/ml by a homogenate method. Inject 0.05 ml of the cell suspension into the muscular layer of greater curvature of stomach of the nude mice via a surgery operation. Administrate the above mice with test drug next day according to the experimental design protocol, and calculate the life extension percentage of the tumor bearing host: Life extension percentage (%)=(mean survival days of treatment group/mean survival days of control)×100% 5.1.2 Liver In Situ Inoculation Model
# Mouse Melanoma B16 Model = assay: Caudal vein inoculation model, lung metastatic colonies; assay type: in vivo, C57BL/6 mouse
# Protocol: as §1, §2
# (§3) Mouse B16 melanoma cells in logarithmic growth phase are taken out under sterile condition, and a cell suspension with a density of about 2.5×10^5 cells/ml is prepared. Inoculate 0.2 ml/mouse of cell suspension into caudal vein of C57BL/6 mouse. Administrate the test drug next day according to the experimental design protocol, euthanize the animal after ˜3 weeks and remove the lungs from mice and count the metastatic colony in the lungs of each mouse. Calculate the tumor inhibition percentage based on the group mean colony by the following formula: Tumor inhibition percentage (%)=[(mean colony of control group−mean colony of treatment group)/mean colony of control group]×100% 5.3 Antineoplastic Toxicity Attenuation Bioassay
# [3] = assay type: in vivo, C57BL/6 mouse; settings: for Body Weight of Animals (g) End: Table 5
# Protocol: as §3
# [4] = Chemotherapy toxicity attenuation bioassay, blood counts; assay type: in vivo, mouse; settings: Heps bearing mice
# [5] = tested on: Human Liver Cancer QGY Model; assay: Liver in situ inoculation model, survival; assay type: in vivo, nude mice; settings: 30 mg/kg/d ip × 7 qd
# Protocol: as §1, §2
# [6] = tested on: Human Intestine Cancer LOVO Model; assay: Efficacy bioassay on intestine cancer model, survival; assay type: in vivo, nude mice; settings: 30 mg/kg/d ip × 7 qd
# Source text: Human intestine cancer LOVO model, human stomach cancer MGC model, and human liver cancer QGY model, all tumor strains are in vivo subcultured for more than 2nd generation. Mouse melanoma B16 cell are subcultured and maintained by Pharmacology Department of Shanghai Institute of Pharmaceutical Industry.
# as §1, §2
# [7] = tested on: mouse liver cancer model (Heps); assay: Chemotherapy efficacy potentiation bioassay, tumor weight; assay type: in vivo
# Protocol: Take strongly growing tumor cells under sterile condition, and prepare it into a cell suspension with a density of about 1˜2×10^7 cells/ml by a homogenate method. Inoculate 0.2 ml/mouse of the cell suspension subcutaneously into the armpit of the axillary host. Administrate the test drug next day according to the experimental design protocol. Euthanize each group animal after ˜3 weeks and remove the tumor from mice and weigh it. Calculate the tumor inhibition percentage by the following formula: Tumor inhibition percentage (%)=[(mean tumor weight of control group−mean tumor weight of treatment group)/mean tumor weight of control group]×100% 5.2.2 Caudal Vein Inoculation Model
smiles,measurement,setting,value
CC(C)=CCC[C@](C)(O)[C@H]1CC[C@]2(C)[C@@H]1[C@H](O)C[C@@H]1[C@@]3(C)CC[C@H](O[C@@H]4O[C@H](CO)[C@@H](O)[C@H](O)[C@H]4O[C@@H]4O[C@H](CO)[C@@H](O)[C@H](O)[C@H]4O)C(C)(C)[C@@H]3CC[C@]12C [20(R)-ginsenoside Rg3],solubility in water,[1],insoluble in water
CC(C)=CCC[C@](C)(O)[C@H]1CC[C@]2(C)[C@@H]1[C@H](O)C[C@@H]1[C@@]3(C)CC[C@H](O[C@@H]4O[C@H](CO)[C@@H](O)[C@H](O)[C@H]4O[C@@H]4O[C@H](CO)[C@@H](O)[C@H](O)[C@H]4O)C(C)(C)[C@@H]3CC[C@]12C [20(S)-ginsenoside Rg3],solubility in water,[1],easily dissolvable in water
"O=P1(N(CCCl)CCCl)NCCCO1 (stereo not shown) [CTX, Cyclophosphamide]",Life Extension Percentage T/C × %,[2],181.02%
same,Mean Survival Time (d) mean ± SD,[2],41.20 ± 3.8 days
same,Antimetastatic Percentage %,"Mouse Melanoma B16 Model; Table 2, 100 mg/kg/d ip × 2 qd",92.41%
same,Lung Colony (number) mean ± SD,"Mouse Melanoma B16 Model; Table 2, 100 mg/kg/d ip × 2 qd",3.5 ± 3.7 number
same,Antimetastatic Percentage %,"Mouse Melanoma B16 Model; Table 5, 15 mg/kg/d ip × 7 qd",48.11%
same,Lung Colony (number) mean ± SD,"Mouse Melanoma B16 Model; Table 5, 15 mg/kg/d ip × 7 qd",26.1 ± 5.2 number
same,Antimetastatic Percentage %,"Mouse Melanoma B16 Model; Table 5, 30 mg/kg/d ip × 7 qd",93.44%
same,Lung Colony (number) mean ± SD,"Mouse Melanoma B16 Model; Table 5, 30 mg/kg/d ip × 7 qd",3.30 ± 2.6 number
same,Body Weight of Animals (g) end,"[3]; Table 2, 100 mg/kg/d ip × 2 qd",19.8/22.6 g
same,Body Weight of Animals (g) End,[3]; 15 mg/kg/d ip × 7 qd,20.2/24.7 g
same,Body Weight of Animals (g) End,[3]; 30 mg/kg/d ip × 7 qd,19.9/22.6 g
same,Hb,[4]; 10 × 3 mg/kg/d,82 ± 8.4 g/L
same,RBC 10^12/L,[4]; 10 × 3 mg/kg/d,2.8 ± 0.3** 10^12/L
same,WBC (10^9/L),[4]; 10 × 3 mg/kg/d,3.2 ± 0.5** 10^9/L
same,Life Extension Percentage T/C × %,[5],157.53%
same,Mean Survival Time (d) mean ± SD,[5],34.50 ± 4.0 days
same,Life Extension Percentage T/C × %,[6],214.71%
same,Mean Survival Time (d) mean ± SD,[6],29.20 ± 4.8 days
same,"Mean Tumor weight (g, mean ± SD)",[7]; 10 × 3 mg/kg/d,0.89 ± 0.29 g
same,Tumor Inhibition Percentage (%),[7]; 10 × 3 mg/kg/d,56.52%
"O=c1[nH]c(=O)n([C@H]2C[C@H](O)[C@@H](CO)O2)cc1F [Example 5Fu, 5-Fluorodeoxyuridine]",Hb,[4]; 25 × 3 mg/kg/d,90 ± 13.0 g/L
same,RBC 10^12/L,[4]; 25 × 3 mg/kg/d,3.1 ± 0.4 10^12/L
same,WBC (10^9/L),[4]; 25 × 3 mg/kg/d,3.9 ± 0.3** 10^9/L
same,"Mean Tumor weight (g, mean ± SD)",[7]; 25 × 3 mg/kg/d,1.08 ± 0.34 g
same,Tumor Inhibition Percentage (%),[7]; 25 × 3 mg/kg/d,41.30%
CN(Cc1cnc2nc(N)nc(N)c2n1)c1ccc(C(=O)N[C@@H](CCC(=O)O)C(=O)O)cc1 [MTX],Hb,[4]; 5 × 3 mg/kg/d,51 ± 1.0 g/L
same,RBC 10^12/L,[4]; 5 × 3 mg/kg/d,1.8 ± 0.1** 10^12/L
same,WBC (10^9/L),[4]; 5 × 3 mg/kg/d,1.6 ± 0.1** 10^9/L
same,"Mean Tumor weight (g, mean ± SD)",[7]; 5 × 3 mg/kg/d,0.27 ± 0.01 g
same,Tumor Inhibition Percentage (%),[7]; 5 × 3 mg/kg/d,85.32%
N.N.[Cl][Pt][Cl] [PDD],"Mean Tumor weight (g, mean ± SD)",[7]; 1 × 3 mg/kg/d,1.09 ± 0.30 g
same,Tumor Inhibition Percentage (%),[7]; 1 × 3 mg/kg/d,40.76%
